Results on twelve molecules are retold here after patent US20230167118A1, “DEGRADATION OF BRUTON'S TYROSINE KINASE (BTK) BY CONJUGATION OF BTK INIDBITORS WITH E3 LIGASE LIGAND AND METHODS OF USE” (BEIGENE, LTD., priority 2020, published 2023).

A word on the IC50: it is the concentration needed to halve the response being measured. Higher therefore signals weaker potency. By DC50 is commonly meant the concentration giving 50% degradation. Lower therefore signals a more potent degrader.

Where only a bound is given, the exact number is not on record here.

Assay [1] has as its system HEK-293 cells. Briefly: HEK-293 Cytotoxicity Assay (CellTiter-Glo). Format: cell-based. The conditions noted are these: Homo sapiens, HEK293, 72 h incubation, CellTiter-Glo luminescence. Here is the method: HEK-293 Cytotoxicity Assay
HEK-293 cells are treated with compounds diluted in 0.2% DMSO, dilution is done according to the following protocol: (1) make 500× stock solution in DMSO from 5 mM by 4-fold dilution, total 8 doses were included; (2) make 2× solution in cell culture medium by transferring 0.5 ul 500× stock solution into 125 ul medium; (3) 50 ul of 2× solution is added to cells and incubate for 72 h.
Add 25 μl of the CellTiter-Glo®Reagent [I (Promega)—Cat No. G7572] to each well in the 96-well plate. Mix contents for 2 minutes on an orbital shaker to induce cell lysis. Allow the plate to incubate at room temperature for 10 minutes to stabilize luminescent signal. Record luminescence on BMG PheraStar with luminescence protocol.
(§1) The IC50 value of a compound can be obtained by fitting the following equation. Y=Bottom+(TOP−Bottom)/(1+((IC50/X)^hillslope)) Wherein, X and Y are known values, and IC50, Hillslope, Top and Bottom are the parameters obtained by fitting with software. Y is the inhibition percentage (calculated from the equation), X is the concentration of the compound; IC50 is the concentration of the compound when the 50% inhibition is reached. The smaller the IC50 value is, the stronger the inhibitory ability of the compound is. Vice versa, the higher the IC50 value is, the weaker the ability the inhibitory ability of the compound is; Hillslope represents the slope of the fitted curve, generally around 1*; Bottom represents the minimum value of the curve obtained by data fitting, which is generally 0%±20%; Top represents the maximum value of the curve obtained by data fitting, which is generally 100%±20%. The experimental data were fitted by calculating and analyzing with Dotmatics data analysis software.
A general note: ATP-based viability assays read luminescence as a measure of living cells.

Assay [2] addresses T1, BTK (Homo sapiens, UniProt Q06187).
T1 construct: High control=Cell group with added DMSO and without compound, indicating microplate readings without BTK degradation; endogenous in cells; host or cells: TMD-8 cells
Briefly: Cell Degradation: BTK degradation in TMD-8 cells, HTRF assay. Format: cell-based. The conditions noted are these: 6 h treatment, IC50 (DC50) of BTK degradation. Here is the method: TMD-8 cells are treated with compounds in 0.2% DMSO, dilution is done according to the following protocol: (1) make 500× stock solution in DMSO from 1 mM by 6-fold dilution, total 8 doses were included; (2) make 2× solution in cell culture medium by transferring 0.5 μl 500× stock solution into 125 μl medium; (3) 15 μl of 2× solution is added to cells and incubate for 6 h.
After 6 h treatment, add […] 4×lysis buffer to each well; seal the plate and incubate 30 min at room temperature on a plate shaker; Once the cells are lysed, 16 μL of cell lysate are transferred to a PE 384-well HTRF detection plate; 4 μL of pre-mixed HTRF antibodies are added to each well; Cover the plate with a plate sealer, spin 1000 rpm for 1 min, Incubate overnight at room temperature; Read on BMG PheraStar with HTRF protocol (337 nm-665 nm-620 nm).
The inhibition (degradation) percentage of the compound was calculated by the following equation: Inhibition percentage of Compound=100-100× (Signal-low control)/(High control-low control), wherein signal=each test compound group
Dmax is the maximum percentage of inhibition (degradation).
The IC50 (DC50) value of a compound can be obtained by fitting the following equation
Y=Bottom+(TOP-Bottom)/(1+((IC50/X)^hillslope))
as §1, with “Wherein,” for “The IC50 value of a compound can be obtained by fitting the following equation. Y=Bottom+(TOP−Bottom)/(1+((IC50/X)^hillslope)) Wherein,”, “1 *;” for “1*;”

T1 sequence (Q06187 whole entry): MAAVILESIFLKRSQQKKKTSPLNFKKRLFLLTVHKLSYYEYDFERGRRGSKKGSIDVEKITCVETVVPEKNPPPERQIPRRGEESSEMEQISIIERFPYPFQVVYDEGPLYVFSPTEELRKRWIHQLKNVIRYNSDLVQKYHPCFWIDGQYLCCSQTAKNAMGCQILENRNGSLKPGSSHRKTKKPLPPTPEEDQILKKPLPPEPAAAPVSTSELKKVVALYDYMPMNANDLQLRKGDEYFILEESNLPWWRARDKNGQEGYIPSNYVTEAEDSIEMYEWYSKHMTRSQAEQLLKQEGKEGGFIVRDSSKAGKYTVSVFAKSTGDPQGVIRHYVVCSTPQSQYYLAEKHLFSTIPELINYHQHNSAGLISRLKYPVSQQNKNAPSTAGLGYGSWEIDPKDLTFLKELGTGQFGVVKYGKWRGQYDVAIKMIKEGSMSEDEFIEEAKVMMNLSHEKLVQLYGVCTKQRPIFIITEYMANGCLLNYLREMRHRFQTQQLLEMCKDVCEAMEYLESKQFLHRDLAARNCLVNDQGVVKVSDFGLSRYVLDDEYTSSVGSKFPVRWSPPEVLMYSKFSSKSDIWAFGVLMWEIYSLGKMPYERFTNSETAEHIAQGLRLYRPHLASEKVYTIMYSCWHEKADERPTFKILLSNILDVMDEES

`Cc1cc(-c2ncnc3[nH]c(-c4ccc(N5CCN(CC6CCN(c7ccc(N8CCC(=O)NC8=O)c(C)c7)CC6)CC5)c(C)c4)nc23)ccc1[C@@H](C)NC(=O)c1nc(C(C)(C)C)no1` [Example 112, (R)-3-(tert-butyl)-N-(1-(4-(8-(4-(4-((1-(4-(2,4-dioxotetrahydropyrimidin-1(2H)-yl)-3-methylphenyl)piperidin-4-yl)methyl)piperazin-1-yl)-3-methylphenyl)-9H-purin-6-yl)-2-methylphenyl)ethyl)-1,2,4-oxadiazole-5-carboxamide]: the IC50 in assay [1] was > 10000 nM. Half-maximal degradation in assay [2] (DC50) was put at 0.76 nM.

Take `Cc1cc(-c2ncnc3[nH]c(-c4ccc(N5CCN(CC6CCN(c7ccc(N8CCC(=O)NC8=O)c(C)c7)CC6)CC5)nc4)nc23)ccc1[C@@H](C)NC(=O)c1nc(C(C)(C)C)no1` [Example 65, (R)-3-(tert-butyl)-N-(1-(4-(8-(6-(4-((1-(4-(2,4-dioxotetrahydropyrimidin-1(2H)-yl)-3-methylphenyl)piperidin-4-yl)methyl)piperazin-1-yl)pyridin-3-yl)-9H-purin-6-yl)-2-methylphenyl)ethyl)-1,2,4-oxadiazole-5-carboxamide]: in assay [1], the IC50 was > 10000 nM. In assay [2], this molecule registered a DC50 of 0.6 nM.

As to `Cc1cc(-c2ncnc3[nH]c(-c4ccc(N5CCN(CC6CCN(c7ccc(N8CCC(=O)NC8=O)cc7)CC6)C[C@H]5C)nc4)cc23)ccc1[C@@H](C)NC(=O)c1nc(C(C)(C)C)no1` [Example 105, 3-(tert-butyl)-N-((R)-1-(4-(6-(6-((R)-4-((1-(4-(2,4-dioxotetrahydropyrimidin-1(2H)-yl)phenyl)piperidin-4-yl)methyl)-2-methylpiperazin-1-yl)pyridin-3-yl)-7H-pyrrolo[2,3-d]pyrimidin-4-yl)-2-methylphenyl)ethyl)-1,2,4-oxadiazole-5-carboxamide], in assay [1], the IC50 is > 10000 nM. This molecule registered a DC50 in assay [2] of 3 nM.

As to `Cc1cc(-c2ncnc3[nH]c(-c4ccc(N5CCN(CC6CCN(c7ccc(N8CCC(=O)NC8=O)cc7)CC6)CC5)cc4)nc23)ccc1[C@@H](C)NC(=O)c1noc(C(C)(C)C)n1` [Example 68, (R)-5-(tert-butyl)-N-(1-(4-(8-(4-(4-((1-(4-(2,4-dioxotetrahydropyrimidin-1(2H)-yl)phenyl)piperidin-4-yl)methyl)piperazin-1-yl)phenyl)-9H-purin-6-yl)-2-methylphenyl)ethyl)-1,2,4-oxadiazole-3-carboxamide], in assay [1], the IC50 is > 10000 nM. The same molecule returned a DC50 in assay [2] of 1.08 nM.

Regarding `Cc1nn(C2CCN(CC3CCN(c4ccc(N5CCC(=O)NC5=O)cc4)CC3)CC2)c(C)c1-c1cc2c(-c3cc(CO)c([C@@H](C)NC(=O)c4nc(C(C)(C)C)no4)cc3F)ncnc2[nH]1` [Example 139, (R)-3-(tert-butyl)-N-(1-(4-(6-(1-(1-((1-(4-(2,4-dioxotetrahydropyrimidin-1(2H)-yl)phenyl)piperidin-4-yl)methyl)piperidin-4-yl)-3,5-dimethyl-1H-pyrazol-4-yl)-7H-pyrrolo[2,3-d]pyrimidin-4-yl)-5-fluoro-2-(hydroxymethyl)phenyl)ethyl)-1,2,4-oxadiazole-5-carboxamide], the IC50 in assay [1] is > 10000 nM. This molecule had a DC50 in assay [2] of 0.5 nM.

For the molecule `Cc1cc(-c2ncnc3[nH]c(-c4c(C)nn(C5CCN(CC6CCN(c7ccc(N8CCC(=O)NC8=O)c(C)c7)CC6)CC5)c4C)cc23)ccc1[C@@H](C)NC(=O)c1nc(C(C)(C)C)no1` [Example 61, (R)-3-(tert-butyl)-N-(1-(4-(6-(1-(1-((1-(4-(2,4-dioxotetrahydropyrimidin-1(2H)-yl)-3-methylphenyl)piperidin-4-yl)methyl)piperidin-4-yl)-3,5-dimethyl-1H-pyrazol-4-yl)-7H-pyrrolo[2,3-d]pyrimidin-4-yl)-2-methylphenyl)ethyl)-1,2,4-oxadiazole-5-carboxamide], the IC50 in assay [1] was determined as 9000 nM. For the same molecule, in assay [2], it took 0.52 nM to reach half-maximal degradation (DC50).

As to `C[C@@H](NC(=O)c1noc(C(C)(C)C)n1)c1ccc(-c2ncnc3[nH]c(-c4ccc(N5CCN(CC6CCN(c7ccc(N8CCC(=O)NC8=O)cc7)CC6)CC5)cc4)cc23)cc1F` [Example 31, (R)-5-(tert-butyl)-N-(1-(4-(6-(4-(4-((1-(4-(2,4-dioxotetrahydropyrimidin-1(2H)-yl)phenyl)piperidin-4-yl)methyl)piperazin-1-yl)phenyl)-7H-pyrrolo[2,3-d]pyrimidin-4-yl)-2-fluorophenyl)ethyl)-1,2,4-oxadiazole-3-carboxamide], the IC50 in assay [1] was > 10000 nM. The molecule also displayed a DC50 in assay [2] of 1.5 nM.

Turning to `Cc1cc(N2CCC(CN3CCN(c4ccc(-c5cc6c(-c7ccc([C@@H](C)NC(=O)c8noc(C(C)(C)C)n8)c(C)c7F)ncnc6[nH]5)cn4)CC3)CC2)ccc1N1CCC(=O)NC1=O` [Example 141, (R)-5-(tert-butyl)-N-(1-(4-(6-(6-(4-((1-(4-(2,4-dioxotetrahydropyrimidin-1(2H)-yl)-3-methylphenyl)piperidin-4-yl)methyl)piperazin-1-yl)pyridin-3-yl)-7H-pyrrolo[2,3-d]pyrimidin-4-yl)-3-fluoro-2-methylphenyl)ethyl)-1,2,4-oxadiazole-3-carboxamide], the IC50 in assay [1] is > 10000 nM. The DC50 in assay [2] was 1.23 nM.

Regarding `Cc1cc(-c2ncnc3[nH]c(-c4ccc(N5CCN(CC6CCN(c7ccc(N8CCC(=O)NC8=O)c(C)c7)CC6)CC5)nc4)nc23)ccc1[C@@H](C)NC(=O)c1noc(C(C)(C)C)n1` [Example 71, (R)-5-(tert-butyl)-N-(1-(4-(8-(6-(4-((1-(4-(2,4-dioxotetrahydropyrimidin-1(2H)-yl)-3-methylphenyl)piperidin-4-yl)methyl)piperazin-1-yl)pyridin-3-yl)-9H-purin-6-yl)-2-methylphenyl)ethyl)-1,2,4-oxadiazole-3-carboxamide], the IC50 in assay [1] is > 10000 nM. Moreover, the DC50 in assay [2] was 0.21 nM.

Regarding `COc1cc(N2CCC(CN3CCN(c4ccc(-c5cc6c(-c7ccc([C@@H](C)NC(=O)c8nc(C(C)(C)C)no8)c(C)c7)ncnc6[nH]5)cc4)CC3)CC2)ccc1N1CCC(=O)NC1=O` [Example 45, (R)-3-(tert-butyl)-N-(1-(4-(6-(4-(4-((1-(4-(2,4-dioxotetrahydropyrimidin-1(2H)-yl)-3-methoxyphenyl)piperidin-4-yl)methyl)piperazin-1-yl)phenyl)-7H-pyrrolo[2,3-d]pyrimidin-4-yl)-2-methylphenyl)ethyl)-1,2,4-oxadiazole-5-carboxamide], in assay [1], the IC50 was > 10000 nM. In assay [2], this molecule had a DC50 of 1.8 nM.

As to `Cc1cc(-c2ncnc3[nH]c(-c4ccc(N5CCN(CC6CCN(c7ccc(N8CCC(=O)NC8=O)cc7)CC6)CC5)nc4)cc23)c(F)cc1[C@@H](C)NC(=O)c1noc(C(C)(C)C)n1` [Example 131, (R)-5-(tert-butyl)-N-(1-(4-(6-(6-(4-((1-(4-(2,4-dioxotetrahydropyrimidin-1(2H)-yl)phenyl)piperidin-4-yl)methyl)piperazin-1-yl)pyridin-3-yl)-7H-pyrrolo[2,3-d]pyrimidin-4-yl)-5-fluoro-2-methylphenyl)ethyl)-1,2,4-oxadiazole-3-carboxamide], the IC50 in assay [1] is > 10000 nM. Also, in assay [2], half-maximal degradation (DC50) was put at 0.59 nM.

Turning to `CC(C)(C)c1noc(C(=O)NCc2ccc(-c3ncnc4[nH]c(-c5ccc(C6CCN(CC7CCN(c8ccc(N9CCC(=O)NC9=O)cc8)CC7)CC6)cc5)cc34)cc2F)n1` [Example 23], the IC50 in assay [1] is > 10000 nM. The molecule further showed a DC50 in assay [2] of 0.87 nM.
